Data published in patent US20100087523A1, “Rupestonic acid derivatives and use thereof” (priority 2008, published 2010).

How the values were obtained:
[1] = system: A-type flu virus (jifang/90-15)
[2] = system: B-type flu virus (jifang/97-13)

Row | SMILES | Activity for inhibiting A-type flu viruses SI (selection index, SI = TC50/IC50) [1] | Activity for inhibiting B-type flu viruses SI (selection index, SI = TC50/IC50) [2]
1 | C=C(C(=O)Nc1ccc(Cl)cc1)C1CCC(C)C2CC(=O)C(C)=C2C1 (stereo not shown) [A-2, N(4-chloro-phenyl)-Rupestonic amide] | 6.3 | 4.0
2 | C=C(C(=O)Nc1ccccc1Br)C1CCC(C)C2CC(=O)C(C)=C2C1 (stereo not shown) [A-5, N(2-bromo-phenyl)-Rupestonic amide] | 3.3 | 
3 | C=C(C(=O)OCC)C1CCC(C)C2CC(=O)C(C)=C2C1 (stereo not shown) [B-1, Ethyl Rupestonic ester] | 4.9 | 3.8
4 | C=C(C(=O)Oc1ccc(Cl)cc1)C1CCC(C)C2CC(=O)C(C)=C2C1 (stereo not shown) [B-2, Rupestonic (p-chlorophenyl)-ester] | 12.6 | 
5 | C=C(C(=O)Oc1ccccc1Cl)C1CCC(C)C2CC(=O)C(C)=C2C1 (stereo not shown) [B-3, Rupestonic (o-chlorophenyl)-ester] | 4.3 | 
6 | C=C(C(=O)Oc1ccc(Br)cc1)C1CCC(C)C2CC(=O)C(C)=C2C1 (stereo not shown) [B-4, Rupestonic (p-bromophenyl)-ester] | 4.3 | 
7 | C=C(C(=O)Oc1ccc(C)cc1)C1CCC(C)C2CC(=O)C(C)=C2C1 (stereo not shown) [B-9, Rupestonic (p-methylphenyl)-ester] | 14.3 | 
8 | C=C(C(=O)OCc1ccc(Cl)cc1)C1CCC(C)C2CC(=O)C(C)=C2C1 (stereo not shown) [B-14, Rupestonic (p-chlorobenzyl)-ester] | 3.8 | 2.5
9 | C=C(C(=O)OCc1ccc([N+](=O)[O-])cc1)C1CCC(C)C2CC(=O)C(C)=C2C1 (stereo not shown) [B-15, Rupestonic (p-nitryl-benzyl)-ester] | 4.6 | 4.6
10 | C=C(C(=O)OCc1ccccc1Br)C1CCC(C)C2CC(=O)C(C)=C2C1 (stereo not shown) [B-17, Rupestonic (o-bromobenzyl)-ester] | 3.9 | 2.2
11 | C=C(C(=O)O)[C@H]1CC[C@H](C)[C@@H]2CC(=O)C(C)=C2C1 [Compound 1, rupestonic acid] |  | 9.00
12 | CCOC(=O)C1=C[C@@H](OC(CC)CC)[C@H](NC(C)=O)[C@@H](N)C1 [Oseltamivir] | >239.1 | 
13 | NC(=O)c1ncn([C@@H]2O[C@H](CO)[C@@H](O)[C@H]2O)n1 [Ribavirin] | 982.8 | 132.1
